Experimental data reported in patent publication US12194105B2, “Composition and method for new antimicrobial agents with secondary mode of action provided by conjugation of an antimicrobial to a guanidinium-rich molecular transporter” (The Board of Trustees of the Leland Stanford Junior …, priority 2018, dated 2025).
Values after ≈ are worked out from the molar mass of the structure shown. “Also recorded” adds a separate entry of the source. Where two headings read alike, the source gives them in different places.

How the values were obtained:
MRSA USA400 MW2 = assay: Time-kill in MHB; type: cell-based, Staphylococcus aureus; conditions: 20 μM; detection limit 2.3 Log(CFU/ml)
Method: FIG. 9. Influence of V and V-r8 (both at 20 μM) on cell viability for MRSA USA400 MW2 in MHB.

planktonic S. aureus = assay: Antibacterial activity against planktonic bacteria (summary over strains); conditions: in words
Method: (§1) Determination of MICs. MICS were determined using broth microdilution in accordance with CLSI methods.^6 One day prior to each MIC experiment, bacterial strains were streaked for single colonies from frozen glycerol stocks stored at −80° C. on Tryptic soy agar. 3-5 colonies from each plate were harvested with a disposable inoculating loop and resuspended in 500 μL PBS. This suspension was diluted in sterile-filtered PBS to an OD of 0.1(˜1×10^8 CFU/ml), and the OD 0.1 suspension was diluted 1:100 in Mueller-Hinton Broth (MHB, Difco 257530) just prior to inoculating the 96-well polypropylene treatment plate. The treatment plate was prepared as follows: 20-fold stocks of the highest concentration of compound tested were prepared in sterile-filtered PBS and were subsequently diluted in MHB to prepare working stocks at 2-times the final concentration. 100 μL of each working stock was placed in the highest concentration treatment well, and the working stocks were 2-fold serially diluted in MHB to lend final treatment volumes of 50 μL/well. 50 μL of adjusted inoculum was added to each well to lend a total volume of 100 μL/well and a final inoculum density of ˜5×10^5 colony forming units (CFU/ml). 10 μL of inoculum in growth control wells was serially diluted in PBS and plated on Tryptic soy agar to verify accurate starting density of cells. […]

[1] = tested on: MRSA USA300 LAC persister cells; assay: Time-kill of persister cells generated with ciprofloxacin; type: cell-based, Staphylococcus aureus; conditions: for killing of persister cells: in words
Method: FIG. 1. Time-kill study of MRSA USA300 LAC persister cells treated with vancomycin and V-r8. MRSA persister cells were generated by treatment with ciprofloxacin at 40 μM for 6 h. Vancomycin or V-r8 (TFA salt) was then introduced at a concentration of 10 μM. Data points are median Log(CFU/ml) values from 2 independent experiments (N=2) where treatments were performed in singlicate. Error bars represent IQR. Detection limit: 1 Log(CFU/ml).
Evaluation of antibacterial activity against persister cells. USA300 persister cells were generated by diluting an overnight culture of USA300 bacteria 1:1000 in 4 mL MHB and growing to OD 0.5 at 37° C. with 200 rpm shaking. […] Upon 6 h treatment with ciprofloxacin, 500 μL culture aliquots were added to Eppendorf tubes and compounds were added from concentrated stocks (mM range) to yield desired final concentrations (10-20 μM). […] CFU/ml were plated at indicated time points to monitor treatment efficacy. The experiment was performed at least twice on separate days.

P. aeruginosa PA14 [2] = conditions: P. aeruginosa PA14, one trial only
Method: as §1

E. coli UTI89 [3] = tested on: E. coli UTI89
Method: (§2) MICS were determined using broth microdilution in accordance with CLSI methods.^6 One day prior to each MIC experiment, bacterial strains were streaked for single colonies from frozen glycerol stocks stored at −80° C. on Tryptic soy agar. 3-5 colonies from each plate were harvested with a disposable inoculating loop and resuspended in 500 μL PBS. This suspension was diluted in sterile-filtered PBS to an OD of 0.1(˜1×10^8 CFU/ml), and the OD 0.1 suspension was diluted 1:100 in Mueller-Hinton Broth (MHB, Difco 257530) just prior to inoculating the 96-well polypropylene treatment plate. The treatment plate was prepared as follows: 20-fold stocks of the highest concentration of compound tested were prepared in sterile-filtered PBS and were subsequently diluted in MHB to prepare working stocks at 2-times the final concentration. 100 μL of each working stock was placed in the highest concentration treatment well, and the working stocks were 2-fold serially diluted in MHB to lend final treatment volumes of 50 μL/well. 50 μL of adjusted inoculum was added to each well to lend a total volume of 100 μL/well and a final inoculum density of ˜5×10^5 colony forming units (CFU/ml). 10 μL of inoculum in growth control wells was serially diluted in PBS and plated on Tryptic soy agar to verify accurate starting density of cells. Growth controls were included in each plate, where no treatment was applied, along with media only controls. Edge wells were filled with PBS. The completed assay plate was sealed with parafilm, placed in a lidded plastic tray lined with moistened paper towels, and incubated at 37° C. for 18-20 h.

E. faecium Van-Resistant [4] = tested on: E. faecium Van-Resistant
Method: as §2

[5] = tested on: MW2 stationary-phase cells; assay: Bacterial membrane integrity with SYTOX Green; conditions: V, V-r8 20 μM; lysostaphin 10×MIC
Text: V-r8 mode-of-action analysis using stationary-phase MW2. All data points represent the median of biological duplicates from a representative experiment; all experiments were repeated on a different day to ensure reproducibility. V-r8 was the TFA salt, and PBS was used for the cell only control. […] Assay detection limit=2.3. […] Compound data was normalized to cell-only control data.
Evaluation of Bacterial Membrane Integrity with SYTOX Green. The SYTOX Green assay was adapted from the literature. Briefly, to a black wall clear-bottom 96-well plate (Costar 3603) was added 50 μL of PBS per well containing antibiotics at 2-times the indicated concentration. 1 mL of a stationary phase MW2 culture was pelleted at 10,000 g for 1 min and washed 3 times with the same volume of sterile-filtered PBS. The washed cells were diluted to OD600=0.1 (˜4×10^7 CFU/mL) with PBS. SYTOX Green (Molecular Probes) was added to the diluted stationary phase suspension for a final concentration of 5 μM and incubated for 0.5 h at room temperature in the dark. 50 μL of the bacteria/SYTOX Green mixture was added to each well of 96-well plates containing antibiotics and fluorescence was measured at 37° C. with shaking for up to 4 h using a spectrophotometer (SpectraMax M3, Molecular Devices) with excitation and emission wavelengths of 485 and 525 nm, respectively. Lysostaphin (1.25 μg/mL) was used as a positive control. The experiment was performed twice on separate days.

V. cholerae = assay: Time-kill study of V. cholerae; type: cell-based; conditions: equivalent concentrations
Method: FIG. 11A-11B. Time-kill study of V. cholerae treated with compounds. (FIG. 11A) Treatments were performed at 20 μM in media. (FIG. 11B) Treatments were performed at 2×MIC in PBS. Kan refers to kanamycin, a FDA-approved aminoglycoside. Data points are from a representative experiment. Detection limit=2.3 Log (CFU/ml).

MRSA USA300 biofilms = assay: Biofilm reduction in vitro after 5 h treatment, Calgary Biofilms Device; type: cell-based, Staphylococcus aureus; conditions: for Log CFU/ml counts: 5 h treatment, median (IQR), untreated 4.5, detection limit 2 Log
[6] = tested on: V. cholerae El Tor A1552R
MRSA (USA400MW2) [7] = tested on: MRSA (USA400MW2)
Method: as §2

MRSA (USA300LAC) [8] = tested on: MRSA (USA300LAC)
Method: (§3) Determination of MICs. MICS were determined using broth microdilution in accordance with CLSI methods.^6 One day prior to each MIC experiment, bacterial strains were streaked for single colonies from frozen glycerol stocks stored at −80° C. on Tryptic soy agar. 3-5 colonies from each plate were harvested with a disposable inoculating loop and resuspended in 500 μL PBS. This suspension was diluted in sterile-filtered PBS to an OD of 0.1(˜1×10^8 CFU/ml), and the OD 0.1 suspension was diluted 1:100 in Mueller-Hinton Broth (MHB, Difco 257530) just prior to inoculating the 96-well polypropylene treatment plate. The treatment plate was prepared as follows: 20-fold stocks of the highest concentration of compound tested were prepared in sterile-filtered PBS and were subsequently diluted in MHB to prepare working stocks at 2-times the final concentration. 100 μL of each working stock was placed in the highest concentration treatment well, and the working stocks were 2-fold serially diluted in MHB to lend final treatment volumes of 50 μL/well. 50 μL of adjusted inoculum was added to each well to lend a total volume of 100 μL/well and a final inoculum density of ˜5×10^5 colony forming units (CFU/ml). 10 μL of inoculum in growth control wells was serially diluted in PBS and plated on Tryptic soy agar to verify accurate starting density of cells. Growth controls were included in each plate, where no treatment was applied, along with media only controls. Edge wells were filled with PBS. The completed assay plate was sealed with parafilm, placed in a lidded plastic tray lined with moistened paper towels, and incubated at 37° C. for 18-20 h.

MSSA (29213) [9] = tested on: MSSA (29213)
Method: as §2

[10] = 0.05% V-r8, absence of bacteria
Method: To examine in vivo cytotoxicity, sterile wounds were generated and inoculated only with water (FIG. 8A) or 0.05% V-r8 (FIG. 8B) in the absence of bacteria. Wound tissue was harvested after 3 days and examined by Hematoxylin & Eosin staining. […] Epi: skin epidermis; Der: skin dermis. Scale bar represents 100 μm. Images are representative of 3 independent samples.
In vivo histological cytotoxicity assessment. […] Samples were fixed in 4% paraformaldehyde in PBS and incubated in 20% sucrose for 24 hours. Tissues were then embedded into Optical Cutting Temperature (OCT) compound (Sakura, California) and snap frozen in liquid nitrogen. 12 μm sections were obtained on a Leica CM1860 UV cryotome (Leica Biosystems, Ernst-Leitz Strasse, Germany), stained with hemotoxylin and eosin (H&E), and visualized using an Axio Scan.Z1 slide scanner (Carl Zeiss, Göttingen, Germany) under 20×/0.8 Apochrome objective as previously described.

USA300 LAC biofilm wound = assay: Murine skin wound excisional biofilm model; conditions: 0.05% solution topical, 5 h treatment, 24 h post infection, compared to untreated mice
E. faecium Van-Resistant [11] = assay: microbe, parasite or virus in culture; conditions: Enterococcus faecium, read-out: E. faecium MICs Van-Resistant
Method: as §2

MSSA (29213) [12] = assay: microbe, parasite or virus in culture; conditions: Staphylococcus aureus, read-out: Minimum Inhibitory Concentration (MIC)
Method: as §2

E. coli UTI89 [13] = assay: microbe, parasite or virus in culture; conditions: Escherichia coli, UTI89, read-out: Median MIC
Method: as §2

H. pylori = assay: MIC, Gram-negative planktonic strains; conditions: Helicobacter pylori
Method: as §1

[14] = tested on: E. faecalis Van-Resistant
Method: as §2

[15] = tested on: E. faecalis Van-Susceptible; assay: microbe, parasite or virus in culture; conditions: Enterococcus faecalis, read-out: E. faecalis MICs Van-Susceptible
Method: as §1

MRSA (USA400MW2) [16] = assay: microbe, parasite or virus in culture; conditions: Staphylococcus aureus, read-out: Minimum Inhibitory Concentration (MIC)
Method: as §2

[17] = tested on: E. faecium Van-Susceptible; assay: microbe, parasite or virus in culture; conditions: Enterococcus faecium, read-out: E. faecium MICs Van-Susceptible
Method: as §1

P. aeruginosa PA14 [18] = assay: microbe, parasite or virus in culture; conditions: Pseudomonas aeruginosa, PA14, read-out: Median MIC
Method: as §1

[19] = tested on: E. faecalis Van-Resistant; assay: microbe, parasite or virus in culture; conditions: Enterococcus faecalis, read-out: E. faecalis MICs Van-Resistant
Method: as §2

[20] = tested on: V. cholerae El Tor A1552R; assay: microbe, parasite or virus in culture; conditions: Vibrio cholerae, ELTORA1552R, read-out: Median MIC
MRSA (USA300LAC) [21] = assay: microbe, parasite or virus in culture; conditions: Staphylococcus aureus, read-out: Minimum Inhibitory Concentration (MIC)
Method: as §3

A. baumannii = assay: MIC, Gram-negative planktonic strains; conditions: Acinetobacter baumannii
Method: as §1

[22] = tested on: E. faecalis Van-Susceptible
Method: as §1

[23] = tested on: E. faecium Van-Susceptible
Method: as §1

[24] = median (IQR), MSSA (29213), 24 h treatment in media
[25] = median (IQR), MRSA (USA300LAC), 24 h treatment in media

Method for MRSA (USA300LAC) biofilm: (§4) Determination of MBECs. Minimum Biofilm Eradication Concentrations (MBECs) were determined in accordance with literature methods. Prior to each assay, 4 mL Tryptic Soy broth (TSB) was inoculated with one colony of S. aureus 29213, MW2 or USA300 and incubated at 37° C., 200 rpm shaking until stationary phase was reached (OD>2). The cultures were adjusted to in TSB to achieve a final inoculum density of 1×10^7 CFU/ml, and 150 μL of inoculum was added to each well of a 96-well base plate (Nunc™ 269787), and a plate lid containing 96 pegs (Nunc™ 445497) was added to the base. The entire apparatus was sealed with parafilm and placed in a sealed plastic bag lined with moistened paper towels for 48 h growth with shaking (150 rpm) at 35° C.
(§5) To prepare biofilm treatment plates, 20-fold stocks of the highest concentration tested were made in sterile-filtered PBS. The 20-fold stocks were diluted in TSB to yield 2-fold working stocks; 200 μL of working stock was added to the highest concentration treatment well and 2-fold serially diluted across the plate to lend final treatment volumes of 100 μL/well. TSB was added to treatment wells to yield final volume of 200 μL/well. PBS was added to the edge wells of the 96-well plate.
(§6) Prior to treatment, 48 h biofilms were rinsed in a 96-well plate containing 200 μL PBS/well for one minute and then the peg lid was transferred to the treatment plate. The plate was parafilmed and incubated at 35° C. for 24 h with 150 rpm shaking. Upon 24 h treatment, the peg lid was removed, rinsed in 200 μL PBS buffer twice for 1 min each, then transferred to a recovery plate containing 200 μL TSB+1% Tween-20 per well. The apparatus was placed in a steel tray and sonicated in a water bath sonicator (Branson 1510) for 10 min to dislodge biofilms. The peg lid was subsequently removed and the media-containing plate was incubated for 20 h at 35° C. with 150 rpm shaking to recover biofilms. The MBEC was read as the lowest treatment concentration where no growth occurred, as determined by measuring by OD600 on a plate reader. […]
Method for MRSA (USA400MW2) biofilm: as §4
To prepare biofilm treatment plates, 20-fold stocks of the highest concentration tested were made in sterile-filtered PBS. […]
Prior to treatment, 48 h biofilms were rinsed in a 96-well plate containing 200 μL PBS/well for one minute and then the peg lid was transferred to the treatment plate. […] The MBEC was read as the lowest treatment concentration where no growth occurred, as determined by measuring by OD600 on a plate reader. […]
Method for MSSA (29213) biofilm: as §4, §5, §6
Method for S. aureus biofilms: as §4, §5
Prior to treatment, 48 h biofilms were rinsed in a 96-well plate containing 200 μL PBS/well for one minute and then the peg lid was transferred to the treatment plate. The plate was parafilmed and incubated at 35° C. for 24 h with 150 rpm shaking. Upon 24 h treatment, the peg lid was removed, rinsed in 200 μL PBS buffer twice for 1 min each, then transferred to a recovery plate containing 200 μL TSB+1% Tween-20 per well. The apparatus was placed in a steel tray and sonicated in a water bath sonicator (Branson 1510) for 10 min to dislodge biofilms. The peg lid was subsequently removed and the media-containing plate was incubated for 20 h at 35° C. with 150 rpm shaking to recover biofilms. The MBEC was read as the lowest treatment concentration where no growth occurred, as determined by measuring by OD600 on a plate reader. The values reported are median values from a minimum of two experiments performed on different days.

CN[C@H](CC(C)C)C(=O)N[C@H]1C(=O)N[C@@H](CC(N)=O)C(=O)N[C@H]2C(=O)N[C@H]3C(=O)N[C@H](C(=O)N[C@H](C(=O)NCCCCCC(=O)N[C@H](CCCNC(=N)N)C(=O)N[C@H](CCCNC(=N)N)C(=O)N[C@H](CCCNC(=N)N)C(=O)N[C@H](CCCNC(=N)N)C(=O)N[C@H](CCCNC(=N)N)C(=O)N[C@H](CCCNC(=N)N)C(=O)N[C@H](CCCNC(=N)N)C(=O)N[C@H](CCCNC(=N)N)C(N)=O)c4cc(O)cc(O)c4-c4cc3ccc4O)[C@H](O)c3ccc(c(Cl)c3)Oc3cc2cc(c3O[C@@H]2O[C@H](CO)[C@@H](O)[C@H](O)[C@H]2O[C@H]2C[C@](C)(N)[C@H](O)[C@H](C)O2)Oc2ccc(cc2Cl)[C@H]1O [V-r8, vancomycin-D-octaarginine]
cell killing, time-kill in MHB (MRSA USA400 MW2): rapid killing; also recorded: eradicated MRSA to the CFU/ml detection limit | antimicrobial activity against planktonic S. aureus (planktonic S. aureus): single digit micromolar | efficacy against persister cells relative to vancomycin ([1]; at 20 μM): > 1500 fold | killing of persister cells [1]: enhanced killing of persister cells | Median MIC (P. aeruginosa PA14 [2]): >32 µM | Median MIC (E. coli UTI89 [3]; E. coli UTI89): ≥32 µM | improvement against VRE faecium (over vancomycin) (E. faecium Van-Resistant [4]): 128 fold | SYTOX Green uptake (membrane damage) [5]: no SYTOX Green uptake | better potency over vancomycin in diminishing growth of biofilm-associated bacteria (S. aureus biofilms; in PBS): 160 fold | better potency over vancomycin in diminishing growth of biofilm-associated bacteria (S. aureus biofilms; in media): > 31 fold | minimum biofilm eradication concentrations (MBECs) (S. aureus biofilms; range over S. aureus strains of Table 1): 2.5 to 16 µM | Minimum Biofilm Eradication Concentration (MBEC) (MSSA (29213) biofilm; [24]): 16 µM | killing relative to V, r8 and untreated cells (V. cholerae; after 4 h): ~5 orders of magnitude | higher killing than kanamycin (V. cholerae; over the first 2 h): 2-3 orders of magnitude | Log CFU/ml counts (MRSA USA300 biofilms; 16 μM in PBS): 2.2 (0.2) Log CFU/ml | Log CFU/ml counts (MRSA USA300 biofilms; 32 μM in PBS): 2.0 (0) Log CFU/ml | biofilm-associated MRSA eradicated (MRSA USA300 biofilms; 5 h treatment at 16 and 32 μM): 98% | Median MIC [6]: 10 µM | Minimum Biofilm Eradication Concentration (MBEC) (MRSA (USA300LAC) biofilm; [25]): 9.5 µM | Minimum Inhibitory Concentration (MIC) (MRSA (USA400MW2) [7]; median (IQR), MRSA (USA400MW2)): 0.94 (0.2) μM | Minimum Inhibitory Concentration (MIC) (MRSA (USA300LAC) [8]; median (IQR), MRSA (USA300LAC)): 2.0 (0.1) μM | Minimum Inhibitory Concentration (MIC) (MSSA (29213) [9]; median (IQR), MSSA (29213)): 1.6 (0.5) μM | acute toxicity, open wound [10]: no acute toxicity | reduction in biofilm bacterial load (CFU/wound) (USA300 LAC biofilm wound): significant reduction; also recorded: as effective as 2% fusidic acid

CN[C@H](CC(C)C)C(=O)N[C@H]1C(=O)N[C@@H](CC(N)=O)C(=O)N[C@H]2C(=O)N[C@H]3C(=O)N[C@H](C(=O)N[C@H](C(=O)O)c4cc(O)cc(O)c4-c4cc3ccc4O)[C@H](O)c3ccc(c(Cl)c3)Oc3cc2cc(c3O[C@@H]2O[C@H](CO)[C@@H](O)[C@H](O)[C@H]2O[C@H]2C[C@](C)(N)[C@H](O)[C@H](C)O2)Oc2ccc(cc2Cl)[C@H]1O [Vancomycin]
MIC (E. faecium Van-Resistant [11]): 512 µM (≈ 742 µg/mL) | cell killing, time-kill in MHB (MRSA USA400 MW2): required longer treatment time | MIC (MSSA (29213) [12]): 0.5 µM (≈ 0.725 µg/mL) | MIC (E. coli UTI89 [13]): > 128 µM | killing of persister cells [1]: ineffective | increase of MIC in VRE faecium (E. faecium Van-Resistant [4]; resistant versus susceptible): > 1350 fold | SYTOX Green uptake (membrane damage) [5]: no SYTOX Green uptake | Minimum Biofilm Eradication Concentration (MBEC) (MSSA (29213) biofilm; [24]): ≥500 µM | Minimum Biofilm Eradication Concentration (MBEC) (MRSA (USA400MW2) biofilm; median (IQR), MRSA (USA400MW2), 24 h treatment in media): ≥500 µM | Log CFU/ml counts (MRSA USA300 biofilms; 16 μM in PBS): 4.3 (0.3) Log CFU/ml | Log CFU/ml counts (MRSA USA300 biofilms; 32 μM in PBS): 5.1 (1.0) Log CFU/ml | killing of biofilms after 5 h treatment (MRSA USA300 biofilms; 16 and 32 μM, in words): ineffective | MIC (H. pylori): > 32 µM | Minimum Biofilm Eradication Concentration (MBEC) (MRSA (USA300LAC) biofilm; [25]): ≥400 µM | increase of MIC in VRE faecalis ([14]; resistant versus susceptible): > 85 fold | MIC [15]: 1.5 µM (≈ 2.17 µg/mL) | MIC (MRSA (USA400MW2) [16]): 0.5 µM (≈ 0.725 µg/mL) | MIC [17]: 0.375 µM (≈ 0.543 µg/mL) | MIC (P. aeruginosa PA14 [18]): > 256 µM | MIC [19]: 128 µM (≈ 186 µg/mL) | MIC [20]: 100 µM (≈ 145 µg/mL) | MIC (MRSA (USA300LAC) [21]): 0.5 µM (≈ 0.725 µg/mL) | reduction in biofilm bacterial load (CFU/wound) (USA300 LAC biofilm wound): not statistically significant | MIC (A. baumannii): > 32 µM

N=C(N)NCCC[C@@H](N)C(=O)N[C@H](CCCNC(=N)N)C(=O)N[C@H](CCCNC(=N)N)C(=O)N[C@H](CCCNC(=N)N)C(=O)N[C@H](CCCNC(=N)N)C(=O)N[C@H](CCCNC(=N)N)C(=O)N[C@H](CCCNC(=N)N)C(=O)N[C@H](CCCNC(=N)N)C(N)=O [r8, octa-D-arginine]
killing of persister cells [1]: no activity | Median MIC (E. coli UTI89 [3]; UTI89): 36 µM | E. faecium MICs Van-Resistant (E. faecium Van-Resistant [4]; Van-Resistant): >128 µM | ability to eradicate biofilms (S. aureus biofilms; in words): unable to eradicate biofilms | Minimum Biofilm Eradication Concentration (MBEC) (MSSA (29213) biofilm; 29213) biofilm, 24 h): >80 µM | Minimum Biofilm Eradication Concentration (MBEC) (MRSA (USA400MW2) biofilm; USA400, 24 h): >80 µM | Minimum Biofilm Eradication Concentration (MBEC) (MRSA (USA300LAC) biofilm; USA300, 24 h): >80 µM | E. faecalis MICs Van-Resistant ([14]; Van-Resistant): >64 µM | E. faecalis MICs Van-Susceptible [22]: >64 µM | E. faecium MICs Van-Susceptible [23]: >64 µM | Minimum Inhibitory Concentration (MIC) (MRSA (USA400MW2) [7]; USA400): 20 (0) μM | Minimum Inhibitory Concentration (MIC) (MRSA (USA300LAC) [8]; USA300): 40 (0) μM | Minimum Inhibitory Concentration (MIC) (MSSA (29213) [9]; 29213): 60 (20) μM

Lysostaphin: an antibacterial enzyme that induces membrane permeabilization, positive control
SYTOX Green uptake (membrane damage) [5]: Rapid uptake of SYTOX Green
